# Measured values published in ChEMBL document CHEMBL1122049, “Synthesis and in vitro antimicrobial activity of 5-substituted 2H-1,3,5-thiadiazine-2,4(3H)-diones” (1982).
# Columns and labels:
# Trichophyton benhamiae = test: Minimum inhibitory concentration against Trichophyton mentagrophytes in Sabouraud dextrose broth by using […]; assay type: functional, Arthroderma benhamiae
# Candida albicans = test: Minimum inhibitory concentration against Candida albicans in Sabouraud dextrose broth by using […]; assay type: functional
SMILES,MIC (Trichophyton benhamiae) [µg/mL],MIC (Candida albicans) [µg/mL]
Oc1c(I)cc(Cl)c2cccnc12 [CLIOQUINOL],4,1
O=c1nc(-c2cccs2)sc(=O)[nH]1,2,62
O=c1nc(-c2ccc(Cl)cc2)sc(=O)[nH]1,4,15
O=c1nc(Cc2cccnc2)sc(=O)[nH]1,8,62
CN(C)c1ccc(-c2nc(=O)[nH]c(=O)s2)cc1,62,> 125
CC(C)c1nc(=O)[nH]c(=O)s1,15,81
O=c1nc(Cc2ccc3c(c2)OCO3)sc(=O)[nH]1,4,125
O=c1nc(-c2ccc3c(c2)OCO3)sc(=O)[nH]1,125,> 250
COc1ccc(-c2nc(=O)[nH]c(=O)s2)cc1,8,125

# Continued, values first:
MIC (Trichophyton benhamiae) [µg/mL],MIC (Candida albicans) [µg/mL],SMILES
< 2,125,O=c1nc(Cc2ccccc2)sc(=O)[nH]1
< 2,31,CC(=O)c1ccc(-c2nc(=O)[nH]c(=O)s2)cc1
< 2,> 250,Cc1ccc(-c2nc(=O)[nH]c(=O)s2)cc1
< 2,15,O=c1nc(-c2ccco2)sc(=O)[nH]1
< 2,8,O=c1nc(-c2ccccc2)sc(=O)[nH]1
